According to patent US6949558B2, “Enhancement of taxane-based chemotherapy by a CDK1 antagonist” (Yale University, priority 2001, dated 2005):

Columns and labels:
[1] = tested on: survivin phosphorylation on Thr^34 in HeLa cells; assay: Survivin phosphorylation on Thr^34 in HeLa cells (immunoprecipitation, Western blotting); assay type: cell-based, human; conditions: increasing concentrations of flavopiridol, 24 h
Method: (§1) A. In vitro kinase assay. […] Radioactive bands were detected by autoradiography. […] The immune complexesb were analyzed by Western blotting (WB) with an antibody to Thr^34-phosphorylated survivin (a-survivinT34*, top panel) or with an antibody to survivin (a-survivin, lower panel) followed by chemiluminescence. For all panels, relative molecular weight markers in kDa are shown on the left.
(§2) In some experiments, total RNA was extracted from MCF-7 cells at various time intervals after adriamycin treatment, and hybridized with 32 P-labeled survivin cDNA as described previously. Radioactive bands were detected by autoradiography. […] In other experiments, samples were transferred to nylon membranes and analyzed by Western blotting with antibodies to p34^cdc2 (1 μg/ml), survivin (2 μg/ml), or survivinT34* (5 μg/ml).
Luciferase values were normalized to β-galactosidase expression.

MCF-7 xenografts = assay type: in vivo; conditions: adriamycin 2 mg/kg or flavopiridol 15 mg/kg alone, i.p.
Excerpt: Each complete cycle was separated by 2 d without treatment.
This test generates a P value testing the null hypothesis that the survival curves are identical in the overall populations.

[2] = tested on: Bcl-2 expression in HeLa cells; assay: Bcl-2 expression by Western blotting in HeLa cells; assay type: cell-based, human; conditions: flavopiridol, 48 h
Method: A. Concentration-dependence. […] B. Time-course. […] C. […] The experimental conditions are the same as in A, except that flavopiridol-treated HeLa cells were analyzed by Western blotting with an antibody to Bcl-2. D. Effect of genistein or TNF a on survivin expression. HeLa cells were treated with the tyrosine kinase inhibitor genistein (25 μM) or TNF a (5 ng/ml) for 48 h, harvested and analyzed for survivin expression by Western blotting. For all panels, relative molecular weight markers in kDa are shown on the left. E. Flavopiridol-induced apoptosis. […] The percentage of apoptotic cells with sub-G1DNA content is indicated. Insert, nuclear morphology of apoptosis (DNA fragmentation, chromatin condensation) in untreated or flavopiridol-treated HeLa cells, by DAPI staining.
as §2

p34^cdc2-cyclin B1 = p34^cdc2-cyclin B1 (Homo sapiens, UniProt P06493); assay: In vitro kinase assay with baculovirus-expressed p34^cdc2-cyclin B1; assay type: biochemical; conditions: 100 nM flavopiridol
p34^cdc2-cyclin B1, sequence (P06493 whole entry): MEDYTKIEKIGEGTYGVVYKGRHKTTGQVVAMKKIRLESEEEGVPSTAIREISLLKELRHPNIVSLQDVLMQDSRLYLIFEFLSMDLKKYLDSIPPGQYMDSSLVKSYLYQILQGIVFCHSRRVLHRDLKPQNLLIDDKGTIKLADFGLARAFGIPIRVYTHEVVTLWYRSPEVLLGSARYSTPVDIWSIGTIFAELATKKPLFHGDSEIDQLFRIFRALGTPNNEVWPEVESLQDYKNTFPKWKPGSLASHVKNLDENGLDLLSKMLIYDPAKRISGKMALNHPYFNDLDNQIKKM
p34^cdc2-cyclin B1, sequence (P14635 whole entry partner): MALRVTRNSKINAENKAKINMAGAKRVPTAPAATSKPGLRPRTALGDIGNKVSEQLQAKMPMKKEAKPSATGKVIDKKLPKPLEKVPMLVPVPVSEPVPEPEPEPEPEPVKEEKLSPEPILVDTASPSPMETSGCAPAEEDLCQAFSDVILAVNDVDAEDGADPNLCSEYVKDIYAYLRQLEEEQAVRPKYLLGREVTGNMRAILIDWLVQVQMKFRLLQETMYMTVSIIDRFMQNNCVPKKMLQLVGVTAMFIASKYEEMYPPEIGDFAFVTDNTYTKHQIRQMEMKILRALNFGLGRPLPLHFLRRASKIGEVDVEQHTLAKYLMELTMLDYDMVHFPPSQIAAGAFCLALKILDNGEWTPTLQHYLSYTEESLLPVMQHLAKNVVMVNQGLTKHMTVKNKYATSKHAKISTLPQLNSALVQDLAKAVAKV
Method: as §1, §2

[3] = tested on: survivin expression in HeLa cells; assay: Survivin expression by Western blotting in HeLa cells; assay type: cell-based, human
Method: (§3) Cell Cultures, Proteins and Antibodies: Breast carcinoma MCF-7 and cervical carcinoma HeLa cells (American Type Culture Collection, Manassas, Va.) were maintained in culture according to the manufacturer's specifications. For treatment with genotoxic agents, HeLa or MCF-7 cells were incubated with vehicle (DMSO) or taxol (2 μM, Sigma Chemical Co., St. Louis, Mo.), adriamycin (100 nM, Sigma), cis-platin (3 μM, Sigma) or subjected to ultraviolet B (UVB) irradiation at 50 or 300 J/m^2. In some experiments, HeLa or MCF-7 treated with taxol, adriamycin or UVB as described above were incubated with inhibitors of transcription (actinomycin D, 1 μg/ml) or translation (cycloheximide, 2 mg/ml) before determination of protein expression by Western blotting. […] A replication-deficient adenovirus encoding wild type survivin (pAd-Survivin) or control encoding Green Fluorescence Protein (pAd-GFP) was generated using the pAd-Easy system as described previously (M. Mesri et al. (2001) J. Clin. Invest. 108: 981-90), and propagated in HEK293 cells with purification by CsCl banding. […] Antibodies to p34^cdc2 or bcl-2 were obtained from Pharmingen (San Diego, Calif.) and R&D, respectively. An antibody to β-actin was from Sigma and antibodies to MPM-2 mitotic phosphoproteins was from Upstate Biotechnology (Lake Placid, N.Y.).
as §2
In other experiments, HeLa cells were treated with taxol (0.2 μM) for 16 h followed by the DNA damaging agent adriamycin (100 nM, Sigma) or the nucleoside analog 5-Fluorouracil (500 μM, Sigma) for 8-32 h at 37° C. […] In some experiments, HeLa cells were transfected by lipofectamine with a minimal survivin promoter construct upstream of a luciferase reporter gene (pLuc-cyc1.2), as described (F. Li et al. (1998) Nature 396: 580-584). Cells were treated with taxol (2 μM) or UVB (50 J/m2), and analyzed for changes in luciferase activity at increasing time intervals (12-36 h) in a luminometer. Luciferase values were normalized to β-galactosidase expression. […] The immune complexes were separated by SDS gel electrophoresis and analyzed with antibodies to survivin or a-survivinT34* by Western blotting.

p34^cdc2 = biological target: T1, p34^cdc2 (Homo sapiens, UniProt P06493); assay: H1 phosphorylation by p34^cdc2 immunoprecipitated from treated HeLa cells; assay type: cell-based; conditions: increasing concentrations of flavopiridol, 24 h
T1 construct: endogenous in cells; host or cells: HeLa cervical carcinoma cells (ATCC)
T1 sequence (P06493 whole entry): as the sequence (P06493 whole entry) above
T1 sequence (P14635 whole entry partner): as the sequence (P14635 whole entry partner) above
Method: as §1, §2

HeLa cells = assay: Apoptosis by DNA content analysis and flow cytometry in HeLa cells; assay type: cell-based, human; conditions: increasing flavopiridol concentrations, 48 h
[4] = tested on: p34^cdc2 kinase activity (MPM-2 epitope) in HeLa cells; assay: MPM-2 mitotic phosphoepitope expression (p34^cdc2 kinase activity) in HeLa cells; assay type: cell-based, human; conditions: HeLa
[5] = tested on: survivin phosphorylation on Thr^34 in MCF-7 cells; assay: Survivin phosphorylation on Thr^34 in MCF-7 cells; assay type: cell-based, human; conditions: flavopiridol in the presence of 100 nM adriamycin
Method: as §2

[6] = tested on: survivin expression in MCF-7 cells; assay: Survivin expression by Western blotting in MCF-7 cells; assay type: cell-based, human
Method: as §3, §2

Compound: CN1CC[C@H](c2c(O)cc(O)c3c(=O)cc(-c4ccccc4Cl)oc23)[C@H](O)C1 [flavopiridol]
- survivin phosphorylation on Thr^34 [1]: concentration-dependent inhibition of phosphorylation on Thr^34
- kinetics of tumor growth vs vehicle (MCF-7 xenografts): did not affect the kinetics of tumor growth
- Bcl-2 expression [2]: did not affect expression of antiapoptotic Bcl-2
- phosphorylation of H1 and wild type survivin by p34^cdc2-cyclin B1 (p34^cdc2-cyclin B1): suppressed phosphorylation of H1 and wild type survivin
- survivin expression ([3]; 1 and 25 nM flavopiridol and between 12 and 72 hours): modest increase in survivin expression
- survivin expression ([3]; flavopiridol 100 nM, 84-96 h treatment): Nearly complete loss of survivin expression
- survivin expression ([3]; higher flavopiridol concentrations, 24 h): complete loss of survivin expression
- survivin expression, concentration dependence ([3]; increasing flavopiridol concentrations, 48 h): concentration-dependent decrease in survivin expression
- H1 phosphorylation by immunoprecipitated p34^cdc2 (p34^cdc2): dose-dependent inhibition of H1 phosphorylation
- population with hypodiploid (apoptotic) DNA content (HeLa cells): concentration-dependent increase in the population with hypodiploid (apoptotic) DNA content
- MPM-2 mitotic phosphoepitope expression ([4]; taxol 0.2 μM 16 h then Cdk inhibitor for 16 h (Purvalanol A 10 μM, alsterpaullone 20 μM, flavopiridol 250 nM, olomoucine 400 μM)): partially inhibited MPM-2 expression
- MPM-2 mitotic phosphoepitope expression ([4]; taxol 0.2 μM 16 h then Cdk inhibitor for 32 h): suppressed mitotic phosphoprotein expression
- survivin phosphorylation on Thr^34 [5]: suppressed survivin phosphorylation on Thr^34
- survivin levels ([6]; anti-cancer agents (adriamycin, UVB) 18 h followed by flavopiridol 72 h): suppressed survivin levels to background values of untreated cultures
- survivin levels ([6]; flavopiridol alone 100 nM for 72 h): did not significantly affect survivin levels
